Experimental data as given in PMC11036078, “PD‐1 inhibition with retifanlimab and/or arginase inhibition with INCB001158 in Japanese patients with solid tumors: A phase I study” (Cancer Medicine, 2024).
“And” between values parts separate entries of the source, which are not always exact repeats. Identical values can stand only once.

Tests used:
advanced solid tumors = experiment: Clinical activity by investigator per RECIST v1.1 (ORR, DCR, DOR); format: in vivo, Japanese patients; settings: n = 6 per group
Method: Preliminary clinical activity of single‐agent retifanlimab and INCB001158, and the combination, was an additional secondary endpoint. Diagnostic imaging was performed by computed tomography scan every 8 ± 1 weeks. Clinical activity was assessed by measuring overall response rate (ORR), defined as the percentage of patients experiencing a complete or partial response (CR or PR) as determined by the investigator according to Response Evaluation Criteria in Solid Tumors (RECIST) v1.1; disease control rate (DCR), defined as the percentage of patients maintaining either an objective response or stable disease (SD) for at least 12 weeks per RECIST v1.1; and duration of response (DOR), defined as the time from first observed response until onset of progressive disease (PD) as determined by the investigator according to RECIST v1.1 or death from any cause.
Safety and efficacy analyses were conducted in the full analysis set, which comprised all enrolled patients who received at least 1 dose of the study drug.
Safety data were summarized using descriptive statistics. PK parameters were summarized by study part, treatment regimen, cohort, dose levels, and/or visit. ORR and DCR were reported with their exact 95% confidence intervals (CIs); DOR was based on the Kaplan–Meier estimate of the distribution function, and the estimated median along with 95% CI was reported. Statistical analyses were performed using SAS® software v9.4 or later (SAS Institute Inc., Cary, NC, USA).

tumor growth = tested on: tumor growth; design: method as in PMID 29254508; settings: preclinical; cited from earlier work

**Q.** With `C[C@H](N)C(=O)N1C[C@H](CCCB(O)O)[C@](N)(C(=O)O)C1` [INCB001158] as the molecule, how does the “Best overall response: Complete response” value (advanced solid tumors; RECIST v1.1, investigator) read?
**A.** 0 n (%)

**Q.** What about the “Best overall response: Partial response” value (advanced solid tumors; RECIST v1.1, investigator) of the same molecule?
**A.** 0 n (%)

**Q.** And the “Best overall response: Progressive disease” value (advanced solid tumors; RECIST v1.1, investigator)?
**A.** 3 (50.0) n (%)

**Q.** And the “Best overall response: Stable disease” value (advanced solid tumors; RECIST v1.1, investigator)?
**A.** 3 n (%) and 3 (50.0) n (%)

**Q.** And the Objective response rate (advanced solid tumors; RECIST v1.1, investigator)?
**A.** 0 [0–45.9] n (%) [95% CI]

**Q.** What about the “DCR” value (advanced solid tumors; RECIST v1.1, 95% CI, 11.8–88.2) of the same molecule?
**A.** 50%

**Q.** And the “Antitumor activity in mouse models” value (tumor growth)?
**A.** demonstrated antitumor activity

**Q.** And the “Tumor growth when combined with ICB” value (tumor growth)?
**A.** synergistically inhibited tumor growth
